Measurements taken from patent US20180318383A1, “PEPTIDE HAVING NEURONAL LOSS PREVENTION AND REGENERATION EFFECTS, AND COMPOSITION CONTAINING SAME” (GEMVAX & KAEL CO., LTD., priority 2015, published 2018).

Assays:
NSCs [1] = experiment: Western blotting and immunostaining of intracellular proteins in NSCs; format: cell-based, rat
Source text: For western blotting, the following antibodies were used: Ki67 (1:200 Abcam), P85a (1:1000, Millipore), pAKT (ser 473, 1:500, Cell Signaling Technology), GSK-3b (ser 9, 1:1000. Santa Cruz Biotechnology), HSTF-1 (1:1000, Santa Cruz Biotechnology), anti-B cell lymphoma-2 (1:1000, Cell Signaling Technology), HMGB-1 (1:500, Cell Signaling Technology), Bax (1:1000, Cell Signaling Technology), Cytosolic cytochrome C (1:200, Cell Signaling Technology), Cleaved caspase 3 (Asp175, 1: 1000, Cell Signaling Technology), c-Myc (1: 1000, Cell Signaling Technology), GFP (1: 1000, Cell Signaling Technology), hTERT (1:500, Santa Cruz Biotechnology), and rTERT (1:500, Santa Cruz Biotechnology).
To confirm an intracellular signaling system, western blotting was performed after 48-hour treatment.
To obtain the mitochondria and a cytoplasmic protein, mitochondria/intracellular protein isolation kits were used (Abcam). All blots were observed using an ECL solution, and observed images were analyzed using an analysis program.
Immunostaining was carried out to confirm intracellular expression and locations. For immunostaining, the following antibodies were used: Ki67 (1:100 Abcam), rabbit anti-doublecortin (1 mg/mL; Abcam), rabbit anti-glial fibrillary acidic protein (GFAP) (1:5000; Abcam), rabbit anti-Tuj1 (1 mg/mL; Abcam), mouse anti-GalC (1 mg/mL; Millipore), and rabbit anti-HMGB1 (1:100; Cell Signaling Technology).
Data was observed using an Olympus fluorescence microscope, and suitable fluorescence was used.

NeuN = NeuN expression in 3XTg-AD mice (western blotting); format: in vivo; settings: hippocampus and whole brain; s.c. three times a week for two months from age 12 months; vs control and Donepezil, same amount
Method: To test the efficacy of PEP1 on AD, AD transgenic mice (3XTg-AD) were purchased from Jackson Laboratory. Genetic characteristics of the transgenic mice are as follows: B6; 129-Psen1tm1Mpm Tg(APPSwe, tauP301L)1Lfa/Mmjax. […] One week after mice were confirmed as pregnant, new mice were delivered and weaned for 3 weeks. Two weeks later, mature mice were obtained.
During the preliminary breeding and the entire period of the experiment, a temperature was maintained at 23±2° C. and a relative humidity was maintained at 60±10%, and then the mice were raised under a 12-hour dark/light cycle. Experimental animals were divided into five groups, and each group included 10 animals. The divided experimental groups are as follows. […]
The PEP1, physiological saline, donepezil and scramble peptide were subcutaneously injected at each concentration three times a week for two months from the age of 12 months, and then two months after the injection, cognitive/memory behavior tests (passive avoidance test and Y maze test) were performed to examine a degree of improvement in cognitive function and memory function. After the brain was extracted to separate the hippocampus, the amounts of amyloid beta in the hippocampus and the whole brain, and the amounts of an amyloid beta oligomer and NFT generated by tau hyperphosphorylation were determined by western blotting and immunostaining. […]

NSCs [2] = experiment: Apoptosis of NSCs by DAPI and TUNEL staining; format: cell-based, rat; settings: 20 μM Aβ25-35 + PEP1 up to 100 μM, 48 hours; p<0.05
Method: NSCs were placed onto collagen-coated glass coverslips with a diameter of 13 mm, and then treated in the manner described below: 1) […]; 2) treated with only 20 μM Aβ25-30; or 3) treated with 20 μM Aβ25-30 and PEP1 at each concentration (1, 10, 50, or 100 μM) for 48 hours.
The cells were washed with PBS and fixed with 4% paraformaldehyde for 20 minutes.
TUNEL staining is a method used to confirm apoptosis. To observe an intact, condensed or fragmented nucleus, the cells that have been stained with TUNEL were treated with 100 μg/ml DAPI for 20 minutes to stain the nucleus, and then mounted on a glass slide to which a DAPI-mixed mounting medium was applied.
The cells were observed under a fluorescence microscope and observed at excitation fluorescence wavelengths corresponding to DAPI and TUNEL.

## EARPALLTSRLRFIPK (homo sapiens) [PEP1, hTERT-derived peptide consisting of 16 amino acids, telomerase location [611-626]]
NSCs [1]; 20 μM Aβ25-35 + PEP1, 48 hours
  apoptosis-associated proteins: Bax, cytoplasmic cytochrome C, cleaved caspase-3: significantly decreased
  ki67 (protein associated with proliferation ability): concentration-dependently increased
  proliferation-associated proteins: P85a PI3K, pAKT (Ser 473), phosphorylated GSK3-3b (Ser 9), HSTF-1, cytoplasmic HMGB-1: recovered
NSCs [1]; immunostaining, 20 μM Aβ25-35 + PEP1 co-treatment
  HMGB1 expression in the cytoplasm: concentration-dependently recovered
NeuN
  NeuN: increased
NSCs [2]
  degree of apoptosis of NSCs: significantly decreased
